A short description of experiment [1]: Downregulation of REST protein expression in HEK293 cells at 10 uM incubated for 6 hrs by immunoblot analysis relative to control. The format is functional, Homo sapiens. (In general: A western blot detects proteins with antibodies after separation by electrophoresis.)
A short description of experiment [2]: Downregulation of REST protein expression in HEK293 cells at 10 uM incubated for 12 hrs by immunoblot analysis relative to control. The format is functional, Homo sapiens.
In experiment [3] the target is T1, Tyrosine-protein phosphatase non-receptor type 2 (Homo sapiens) (UniProt P17706).
T1 sequence (whole entry): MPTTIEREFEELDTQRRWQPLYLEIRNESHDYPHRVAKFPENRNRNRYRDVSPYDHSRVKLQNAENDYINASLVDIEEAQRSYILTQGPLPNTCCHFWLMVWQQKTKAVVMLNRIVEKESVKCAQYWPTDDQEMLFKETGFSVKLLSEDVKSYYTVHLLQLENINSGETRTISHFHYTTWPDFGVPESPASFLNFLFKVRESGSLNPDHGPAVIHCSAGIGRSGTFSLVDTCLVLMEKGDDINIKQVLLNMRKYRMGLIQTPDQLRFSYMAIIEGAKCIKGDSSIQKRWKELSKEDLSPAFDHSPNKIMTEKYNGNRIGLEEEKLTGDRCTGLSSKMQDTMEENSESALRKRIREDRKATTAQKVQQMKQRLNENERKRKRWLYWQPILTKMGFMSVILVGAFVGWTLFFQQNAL
Description: Inhibition of TCPTP (unknown origin) at 25 to 30 uM. The following applies: dose 25-30 µM.

The species named for experiment [4] is Homo sapiens. Description: Covalent inhibition of human SCP1 C148A mutant using pNPP as substrate preincubated for 0.5 to 8 hrs followed by substrate addition by absorbance based analysis. The settings on record: time 0.5-8 hrs.
For experiment [5], the species on record is Homo sapiens. Description: Covalent inhibition of human SCP1 C92S mutant using pNPP as substrate preincubated for 0.5 to 8 hrs followed by substrate addition by absorbance based analysis. The following applies: time 0.5-8 hrs.
The species named for experiment [6] is Homo sapiens. As to the kind of experiment: Covalent binding affinity to human SCP1 C92 mutant assessed as covalent adduct formation incubated for overnight by MALDI-TOF analysis.
The target in experiment [7] is T2, Tyrosine-protein phosphatase non-receptor type 1 (Homo sapiens) (UniProt P18031).
T2 sequence (whole entry): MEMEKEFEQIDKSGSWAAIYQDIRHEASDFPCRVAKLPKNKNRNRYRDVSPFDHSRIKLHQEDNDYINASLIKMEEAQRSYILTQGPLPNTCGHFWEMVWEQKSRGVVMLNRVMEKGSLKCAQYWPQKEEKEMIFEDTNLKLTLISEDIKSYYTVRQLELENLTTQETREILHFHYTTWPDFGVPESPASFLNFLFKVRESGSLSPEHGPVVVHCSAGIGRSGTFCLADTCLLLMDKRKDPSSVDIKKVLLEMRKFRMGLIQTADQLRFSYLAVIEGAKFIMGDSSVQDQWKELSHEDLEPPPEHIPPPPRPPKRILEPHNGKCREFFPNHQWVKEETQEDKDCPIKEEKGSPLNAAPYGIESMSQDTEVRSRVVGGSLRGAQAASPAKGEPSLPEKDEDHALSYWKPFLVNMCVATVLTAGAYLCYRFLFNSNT
Description: Inhibition of human PTP1B (1 to 321 residues) expressed in Escherichia coli BL21 (DE3) using pNPP as substrate at up to 200 uM preincubated for 4 hrs followed by substrate addition by absorption based analysis. The settings on record: dose microM <=200, time 4.0 hrs.

Experiment [8] relates to Schizosaccharomyces pombe. Description: Inhibition of Schizosaccharomyces pombe wild type FCP1 (148 to 641 residues) assessed as reduction in enzymatic activity using pNPP as substrate at 100 uM measured up to 18 hrs by absorbance based assay relative to control. The following applies: time hrs <=18.
Experiment [9] can be described thus: Downregulation of REST protein expression in HEK293 cells at 3 uM incubated for 3 days with media replenishment for every 24 hrs by immunoblot analysis relative to control. The format is functional, Homo sapiens. The following applies: time 3 day.
The subject of experiment [10] is HEK293. Description: Recovery of REST protein expression in HEK293 cells at 10 uM incubated for 2 days with media replenishment for every 24 hrs followed by compound washout and measured after 12 hrs by immunoblot analysis relative to control. The format is functional, Homo sapiens. The following applies: time 2 day.
For experiment [11], the system named is HEK293. As to the kind of experiment: Recovery of REST protein expression in HEK293 cells at 10 uM incubated for 2 days with media replenishment for every 24 hrs followed by compound washout and measured after 3 days by immunoblot analysis relative to control. The format is functional, Homo sapiens. The following applies: time 2 day.
A short description of experiment [12]: Upregulation of ELAVL1 mRNA expression in HEK293 cells assessed as fold increase by qRT-PCR analysis. The format is functional, Homo sapiens. (In general: Quantitative PCR measures a nucleic acid by following its amplification.)
A short description of experiment [13]: Upregulation of CELSR3 mRNA expression in HEK293 cells assessed as fold increase by qRT-PCR analysis. The format is functional, Homo sapiens.
Experiment [14] can be described thus: Upregulation of SCN2 mRNA expression in HEK293 cells assessed as fold increase by qRT-PCR analysis. The format is functional, Homo sapiens.
Experiment [15] deals with T3, Tyrosine-protein phosphatase non-receptor type 11 (Homo sapiens) (UniProt Q06124).
T3 sequence (whole entry): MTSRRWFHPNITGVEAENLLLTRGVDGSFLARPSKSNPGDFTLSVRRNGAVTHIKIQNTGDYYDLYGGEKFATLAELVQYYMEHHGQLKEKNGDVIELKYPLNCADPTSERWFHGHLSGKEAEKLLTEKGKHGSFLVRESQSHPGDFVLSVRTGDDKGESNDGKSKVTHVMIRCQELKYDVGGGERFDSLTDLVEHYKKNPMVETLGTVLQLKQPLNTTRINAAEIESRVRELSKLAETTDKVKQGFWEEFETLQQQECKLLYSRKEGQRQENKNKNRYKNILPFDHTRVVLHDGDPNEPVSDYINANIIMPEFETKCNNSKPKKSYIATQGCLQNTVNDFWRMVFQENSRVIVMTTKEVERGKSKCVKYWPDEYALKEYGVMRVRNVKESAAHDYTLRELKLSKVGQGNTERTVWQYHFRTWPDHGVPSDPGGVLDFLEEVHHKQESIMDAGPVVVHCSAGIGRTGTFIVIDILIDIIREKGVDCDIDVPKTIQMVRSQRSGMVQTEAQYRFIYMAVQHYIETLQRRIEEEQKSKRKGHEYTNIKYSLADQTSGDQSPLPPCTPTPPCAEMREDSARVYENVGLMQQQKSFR
Description: Inhibition of SHP2 (unknown origin) at 25 to 30 uM. The following applies: dose 25-30 µM.

Experiment [16] is filed under the species Homo sapiens. Description: Inhibition of PP1 (unknown origin) using pNPP as substrate incubated for 4 hrs by absorbance based analysis.

As usually defined, the inhibition is the percentage by which the read-out fell short of the control.

Calls of active or inactive are those of the source. The calls are words filed in the database; no cut-off is given here.

For the compound `O=C(NCCCNS(=O)(=O)c1ccc(OC(F)(F)F)cc1)C1=Cc2ccccc2S1(=O)=O`, the Activity turned out to be 60% in experiment [1]; 20% in experiment [2]; 40% in [9]; 24% in [10]; 77% in experiment [11]. Also, the inhibition entry in [3], in experiment [5], in [7], in experiment [15] and in [16] was “inactive” in each case. Besides, the inhibition entry in experiment [4] is “Active”. Also, the outcome in experiment [6] was Active. For the same compound, in [8], the inhibition was 50%. Besides, the “fold change (FC)” value in experiment [12], in experiment [13] and in experiment [14] was 2 throughout.

The values are drawn from ChEMBL document CHEMBL5046244, “Targeted Covalent Inhibition of Small CTD Phosphatase 1 to Promote the Degradation of the REST Transcription Factor in Human Cells” (J Med Chem, 2022).
